According to paper PMC5538626, “Structural and functional analysis of the GABARAP interaction motif (GIM)” (EMBO Reports, 2017):
Ends that are not written are not given here.

What was measured:
LC3A = target: T1, LC3A (Homo sapiens, UniProt Q9H492); assay: ITC titration of PLEKHM1-LIR peptide into LC3A; format: binding; conditions: 25°C, pH 7.0
T1 construct: modified Ub-leader (ubiquitin fusion leader) (N); made in house; host or cells: E. coli NEB T7 Express
Procedure: (§1) The genes for the truncated LC3A^2–121, LC3C^8–125, GABARAP^2–117 and GABARAP‐L1^2–117 proteins were cloned into pET30ΔSE vector between the BamHI and XhoI sites using previously established protocols 38. The chimeric constructs of the PLEKHM1‐LIR attached to the LC3A, GABARAP and GABARAP‐L1 proteins were prepared by inserting the oligonucleotide sequence corresponding to the PLEKHM1‐LIR peptide (P^629[…]^638) and glycine–serine linker into the BamHI site of the pET30ΔSE vector, placing the PLEKHM1‐LIR at the N‐terminal of the mature chimeric protein (similar to 31, 38). For the expression of human LC3 and GABARAP proteins for ITC and NMR experiments, plasmids with appropriate modified Ub‐leaders in pET vectors were used 39. Gene, encoding PLEKHM1‐LIR peptide, was ordered as synthetic oligonucleotides (Eurofins Genomics GmbH) and cloned into the pET39_Ub63_ vector 39 by NcoI–BamHI restriction sites. After TEV cleavage, the resulting peptide has the amino acid sequence GAMG‐P^629[…]^642, where the first four residues (GAMG) are the cloning artefact.
(§2) The chimeric constructs were expressed as a His‐tag fusion protein in E. coli BL21(DE3) cells. The cells were induced with 0.3 mM IPTG at OD600 0.6 for 16 h at 26°C. The cell pellets were lysed using mechanical sonication in lysis buffer (20 mM Tris–HCl pH 9.0, 100 mM NaCl, 10 mM imidazole, supplemented with 0.1% Triton X‐100). The proteins were purified using Ni‐NTA beads (GE Healthcare) and the His‐tag was cleaved using thrombin (Invitrogen) at room temperature for 16 h. The last step was gel filtration chromatography using a Superdex S200/300 GL column (GE Healthcare). The proteins were concentrated using spin concentrators (Vivaspin). For ITC and NMR studies, the non‐labelled and stable isotopes labelled LC3 and GABARAP proteins were obtained based on the protocols described elsewhere 30, 39. Here, E. coli NEB T7 Express culture transformed with corresponding plasmids were grown till OD600 nm = 1.0 and protein expression was induced with 0.2 mM IPTG. The cultures were incubated at 25°C for 8–12 h before cell harvesting. Isolation and purification procedures were similar to those reported in Ref. 22, 40. Before experiments, all proteins and peptides were equilibrated with a buffer containing 50 mM Na2HPO4, 100 mM NaCl at pH 7.0, and supplied with 5 mM protease inhibitor cocktail.
(§3) The protocol for preparation of non‐labelled and ^13C,^15N‐labelled PLEKHM1‐LIR peptide was slightly modified to achieve highest yield of the peptide. The 50 ml M9 culture was inoculated with NEB T7 cell transformed with pET39_Ub63‐PLEKHM1‐LIR plasmid and grown overnight at 37°. The collected cells were resuspended in 2 l of either LB or M9 media contained 1.5 g ^15N‐labelled NH4Cl and 3.0 g of ^13C‐labelled glucose. The cultures were grown at 37° till A(600 nm) = 0.9 and supplied with 1 mM of IPTG to induce Ub63‐PLEKHM1‐LIR overexpression (3 h at 37°). After that cells were harvested by centrifugation, re‐suspended in buffer contained 50 mM Tris–HCl pH = 7.9, 200 mM NaCl, 5% glycerol, 0.1 mg/ml DNase A and 4 mM protease inhibitor cocktail. After cell lysis by French press, debris was removed by centrifugation and clear supernatant was applied onto the column contained Ni‐NTA Sepharose equilibrated with the loading buffer (50 mM Tris–HCl pH = 7.9, 250 mM NaCl, 1% glycerol and 20 mM imidazole). Elution was performed with 400 mM imidazole in the same buffer. An aliquot of pure Ub63‐PLEKHM1‐LIR fractions was further purified by gel filtration on Superdex75 26 × 60 column for control ITC and analytical size exclusion chromatography experiments, remaining fusion protein was processed with the TEV‐protease and PLEKHM1‐LIR peptide was purified to 95% purity by reverse Ni‐NTA chromatography and followed gel filtration on Superdex75 26 × 60 column. Peak maximum of peptide was detected at […] (void volume 115 ml). Pure peptide was concentrated in Amicon concentrators with cut‐off of 3 kDa (> 95% retention). […]

LC3B = target: T2, LC3B (Homo sapiens, UniProt Q9GZQ8); assay: ITC titration of PLEKHM1-LIR peptides into LC3B; format: binding; conditions: ITC, 25°C, pH 7.0; for ΔH: VP-ITC, one-site model, 0.4 mM peptide into 0.020 mM protein, 50 mM Na2HPO4, 100 mM NaCl
T2 construct: modified Ub-leader (ubiquitin fusion leader) (N); made in house; host or cells: E. coli NEB T7 Express
Procedure: as §1, §2, §3

GABARAP-L1 = target: T3, GABARAP-L1 (Homo sapiens, UniProt Q9H0R8); assay: ITC titration of PLEKHM1-LIR peptide into GABARAP-L1; format: binding; conditions: 25°C, pH 7.0
T3 construct: modified Ub-leader (ubiquitin fusion leader) (N); made in house; host or cells: E. coli NEB T7 Express
Procedure: as §1, §2, §3

GABARAP proteins = assay: ITC, GABARAP proteins (range); format: binding, human
Procedure: All titration experiments were performed at 25°C using a VP‐ITC microcalorimeter (Malvern Instruments Ltd, UK). The ITC data were analysed with the ITC‐Origin 7.0 software with a “one‐site” binding model. The peptides at concentrations of 0.4 mM were titrated into 0.020 mM LC3 and GABARAP proteins in 26 steps. The protein and peptide concentrations were calculated from the UV absorption at 280 nm by NanoDrop spectrophotometer (Thermo Fisher Scientific, DE, USA).

[1] = VP-ITC, one-site model, 0.4 mM peptide into 0.020 mM protein, 50 mM Na2HPO4, 100 mM NaCl

T3 sequence (Q9H0R8 whole entry, the tested form may be a part): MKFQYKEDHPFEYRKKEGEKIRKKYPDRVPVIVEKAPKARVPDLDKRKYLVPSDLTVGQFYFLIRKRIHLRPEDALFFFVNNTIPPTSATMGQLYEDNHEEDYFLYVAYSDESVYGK

## GAMGPQQEDEWVNVQYPD [PLEKHM1‐LIR WT]
LC3A; [1]
  ΔH: -7 ± 0.2 kcal/mol
LC3A
  KA: 0.24 ± 0.02 ×10^6 M^−1
  N (number of binding sites): 0.98 ± 0.02
  ΔG: -7.33 kcal/mol
  ΔS: +1.17 cal mol^−1 K^−1
  −T × ΔS: -0.35 kcal/mol
LC3B
  ΔH: -5.8 ± 0.2 kcal/mol
  KA: 0.16 ± 0.01 ×10^6 M^−1
  N (number of binding sites): 1.06 ± 0.01
  ΔG: -7.09 kcal/mol
  ΔS: +4.27 cal mol^−1 K^−1
  −T × ΔS: -1.27 kcal/mol
LC3B; listed as PLEKHM1-LIR
  ΔH: -5.8 ± 0.2 kcal/mol
  KA: 0.16±0.01 ×10^6 M^−1
  ΔG: -7.09 kcal/mol
  −T × ΔS: -1.27 kcal/mol
GABARAP-L1; [1]
  ΔH: -7.8 ± 0.1 kcal/mol
GABARAP-L1
  KA: 1.3 ± 0.1 ×10^6 M^−1
  N (number of binding sites): 1.00 ± 0.01
  ΔG: -8.35 kcal/mol
  ΔS: +1.94 cal mol^−1 K^−1
  −T × ΔS: -0.58 kcal/mol
GABARAP proteins
  Kd: 550 to 770 nM
